# Experimental data from the NIST ThermoML archive (doi:10.1021/acs.jced.5b00662).
# Numbers after ± are expanded uncertainties.
# Test: xn = mol fraction of the nth substance listed
# Details: 283.15 K; 100 kPa; Liquid; Sing-around technique in a fixed-path interferometer; x1 = 0.9886
row,speed of sound [m/s],Structure (SMILES)
1,1690.2 ± 1.3,"OCCO [1,2-ethanediol] + O"

# Same assay, conditions: 283.15 K; 100 kPa; Liquid; Sing-around technique in a fixed-path interferometer; x1 = 0.9943
row,speed of sound [m/s],Structure (SMILES)
1,1689 ± 1.3,"OCCO [1,2-ethanediol] + O"

# Same assay, conditions: 283.15 K; 100 kPa; Liquid; Sing-around technique in a fixed-path interferometer; x1 = 0.9959
row,speed of sound [m/s],Structure (SMILES)
1,1690.6 ± 1.3,"OCCO [1,2-ethanediol] + O"

# Same assay, conditions: 283.15 K; 100 kPa; Liquid; Vibrating tube method; x1 = 0.9886
row,mass density [kg/m3],Structure (SMILES)
1,1119.9 ± 2,"OCCO [1,2-ethanediol] + O"

# Same assay, conditions: 283.15 K; 100 kPa; Liquid; Vibrating tube method; x1 = 0.9943
row,mass density [kg/m3],Structure (SMILES)
1,1120.07 ± 2,"OCCO [1,2-ethanediol] + O"

# Same assay, conditions: 283.15 K; 100 kPa; Liquid; Vibrating tube method; x1 = 0.9959
row,mass density [kg/m3],Structure (SMILES)
1,1120.11 ± 2,"OCCO [1,2-ethanediol] + O"

# Same assay, conditions: 288.15 K; 100 kPa; Liquid; Sing-around technique in a fixed-path interferometer; x1 = 0.9886
row,speed of sound [m/s],Structure (SMILES)
1,1678.4 ± 1.3,"OCCO [1,2-ethanediol] + O"

# Same assay, conditions: 288.15 K; 100 kPa; Liquid; Sing-around technique in a fixed-path interferometer; x1 = 0.9943
row,speed of sound [m/s],Structure (SMILES)
1,1678.1 ± 1.3,"OCCO [1,2-ethanediol] + O"

# Same assay, conditions: 288.15 K; 100 kPa; Liquid; Sing-around technique in a fixed-path interferometer; x1 = 0.9959
row,speed of sound [m/s],Structure (SMILES)
1,1678.6 ± 1.3,"OCCO [1,2-ethanediol] + O"

# Same assay, conditions: 288.15 K; 100 kPa; Liquid; Vibrating tube method; x1 = 0.9886
row,mass density [kg/m3],Structure (SMILES)
1,1116.43 ± 2,"OCCO [1,2-ethanediol] + O"

# Same assay, conditions: 293.15 K; 100 kPa; Liquid; Sing-around technique in a fixed-path interferometer; x1 = 0.9886
row,speed of sound [m/s],Structure (SMILES)
1,1666.6 ± 1.3,"OCCO [1,2-ethanediol] + O"

# Same assay, conditions: 293.15 K; 100 kPa; Liquid; Sing-around technique in a fixed-path interferometer; x1 = 0.9943
row,speed of sound [m/s],Structure (SMILES)
1,1666.3 ± 1.3,"OCCO [1,2-ethanediol] + O"

# Same assay, conditions: 293.15 K; 100 kPa; Liquid; Sing-around technique in a fixed-path interferometer; x1 = 0.9959
row,speed of sound [m/s],Structure (SMILES)
1,1666.6 ± 1.3,"OCCO [1,2-ethanediol] + O"

# Same assay, conditions: 293.15 K; 100 kPa; Liquid; Vibrating tube method; x1 = 0.9886
row,mass density [kg/m3],Structure (SMILES)
1,1112.94 ± 2,"OCCO [1,2-ethanediol] + O"

# Same assay, conditions: 293.15 K; 100 kPa; Liquid; Vibrating tube method; x1 = 0.9943
row,mass density [kg/m3],Structure (SMILES)
1,1113.11 ± 2,"OCCO [1,2-ethanediol] + O"

# Same assay, conditions: 293.15 K; 100 kPa; Liquid; Vibrating tube method; x1 = 0.9959
row,mass density [kg/m3],Structure (SMILES)
1,1113.15 ± 2,"OCCO [1,2-ethanediol] + O"

# Same assay, conditions: 298.15 K; 100 kPa; Liquid; Sing-around technique in a fixed-path interferometer; x1 = 0.9886
row,speed of sound [m/s],Structure (SMILES)
1,1654.7 ± 1.3,"OCCO [1,2-ethanediol] + O"

# Same assay, conditions: 298.15 K; 100 kPa; Liquid; Sing-around technique in a fixed-path interferometer; x1 = 0.9943
row,speed of sound [m/s],Structure (SMILES)
1,1654.8 ± 1.3,"OCCO [1,2-ethanediol] + O"

# Same assay, conditions: 298.15 K; 100 kPa; Liquid; Sing-around technique in a fixed-path interferometer; x1 = 0.9959
row,speed of sound [m/s],Structure (SMILES)
1,1654.6 ± 1.3,"OCCO [1,2-ethanediol] + O"

# Same assay, conditions: 298.15 K; 100 kPa; Liquid; Vibrating tube method; x1 = 0.9886
row,mass density [kg/m3],Structure (SMILES)
1,1109.46 ± 2,"OCCO [1,2-ethanediol] + O"

# Same assay, conditions: 303.15 K; 100 kPa; Liquid; Sing-around technique in a fixed-path interferometer; x1 = 0.9886
row,speed of sound [m/s],Structure (SMILES)
1,1643 ± 1.3,"OCCO [1,2-ethanediol] + O"

# Same assay, conditions: 303.15 K; 100 kPa; Liquid; Sing-around technique in a fixed-path interferometer; x1 = 0.9943
row,speed of sound [m/s],Structure (SMILES)
1,1643 ± 1.3,"OCCO [1,2-ethanediol] + O"

# Same assay, conditions: 303.15 K; 100 kPa; Liquid; Sing-around technique in a fixed-path interferometer; x1 = 0.9959
row,speed of sound [m/s],Structure (SMILES)
1,1642.7 ± 1.3,"OCCO [1,2-ethanediol] + O"

# Same assay, conditions: 303.15 K; 100 kPa; Liquid; Vibrating tube method; x1 = 0.9886
row,mass density [kg/m3],Structure (SMILES)
1,1105.95 ± 2,"OCCO [1,2-ethanediol] + O"

# Same assay, conditions: 303.15 K; 100 kPa; Liquid; Vibrating tube method; x1 = 0.9943
row,mass density [kg/m3],Structure (SMILES)
1,1106.11 ± 2,"OCCO [1,2-ethanediol] + O"

# Same assay, conditions: 303.15 K; 100 kPa; Liquid; Vibrating tube method; x1 = 0.9959
row,mass density [kg/m3],Structure (SMILES)
1,1106.15 ± 2,"OCCO [1,2-ethanediol] + O"

# Same assay, conditions: 308.15 K; 100 kPa; Liquid; Sing-around technique in a fixed-path interferometer; x1 = 0.9886
row,speed of sound [m/s],Structure (SMILES)
1,1631.2 ± 1.3,"OCCO [1,2-ethanediol] + O"

# Same assay, conditions: 308.15 K; 100 kPa; Liquid; Sing-around technique in a fixed-path interferometer; x1 = 0.9943
row,speed of sound [m/s],Structure (SMILES)
1,1631.3 ± 1.3,"OCCO [1,2-ethanediol] + O"

# Same assay, conditions: 308.15 K; 100 kPa; Liquid; Sing-around technique in a fixed-path interferometer; x1 = 0.9959
row,speed of sound [m/s],Structure (SMILES)
1,1630.9 ± 1.3,"OCCO [1,2-ethanediol] + O"

# Same assay, conditions: 308.15 K; 100 kPa; Liquid; Vibrating tube method; x1 = 0.9886
row,mass density [kg/m3],Structure (SMILES)
1,1102.43 ± 2,"OCCO [1,2-ethanediol] + O"

# Same assay, conditions: 313.15 K; 100 kPa; Liquid; Sing-around technique in a fixed-path interferometer; x1 = 0.9886
row,speed of sound [m/s],Structure (SMILES)
1,1619.5 ± 1.3,"OCCO [1,2-ethanediol] + O"

# Same assay, conditions: 313.15 K; 100 kPa; Liquid; Sing-around technique in a fixed-path interferometer; x1 = 0.9943
row,speed of sound [m/s],Structure (SMILES)
1,1619.4 ± 1.3,"OCCO [1,2-ethanediol] + O"

# Same assay, conditions: 313.15 K; 100 kPa; Liquid; Sing-around technique in a fixed-path interferometer; x1 = 0.9959
row,speed of sound [m/s],Structure (SMILES)
1,1619.1 ± 1.3,"OCCO [1,2-ethanediol] + O"

# Same assay, conditions: 313.15 K; 100 kPa; Liquid; Vibrating tube method; x1 = 0.9886
row,mass density [kg/m3],Structure (SMILES)
1,1098.89 ± 2,"OCCO [1,2-ethanediol] + O"

# Same assay, conditions: 313.15 K; 100 kPa; Liquid; Vibrating tube method; x1 = 0.9943
row,mass density [kg/m3],Structure (SMILES)
1,1099.05 ± 2,"OCCO [1,2-ethanediol] + O"

# Same assay, conditions: 313.15 K; 100 kPa; Liquid; Vibrating tube method; x1 = 0.9959
row,mass density [kg/m3],Structure (SMILES)
1,1099.1 ± 2,"OCCO [1,2-ethanediol] + O"

# Same assay, conditions: 323.15 K; 100 kPa; Liquid; Sing-around technique in a fixed-path interferometer; x1 = 0.9886
row,speed of sound [m/s],Structure (SMILES)
1,1595.7 ± 1.3,"OCCO [1,2-ethanediol] + O"

# Same assay, conditions: 323.15 K; 100 kPa; Liquid; Sing-around technique in a fixed-path interferometer; x1 = 0.9943
row,speed of sound [m/s],Structure (SMILES)
1,1595.5 ± 1.3,"OCCO [1,2-ethanediol] + O"

# Same assay, conditions: 323.15 K; 100 kPa; Liquid; Sing-around technique in a fixed-path interferometer; x1 = 0.9959
row,speed of sound [m/s],Structure (SMILES)
1,1595.2 ± 1.3,"OCCO [1,2-ethanediol] + O"

# Same assay, conditions: 323.15 K; 100 kPa; Liquid; Vibrating tube method; x1 = 0.9886
row,mass density [kg/m3],Structure (SMILES)
1,1091.75 ± 2,"OCCO [1,2-ethanediol] + O"

# Same assay, conditions: 323.15 K; 100 kPa; Liquid; Vibrating tube method; x1 = 0.9943
row,mass density [kg/m3],Structure (SMILES)
1,1091.9 ± 2,"OCCO [1,2-ethanediol] + O"

# Same assay, conditions: 323.15 K; 100 kPa; Liquid; Vibrating tube method; x1 = 0.9959
row,mass density [kg/m3],Structure (SMILES)
1,1091.95 ± 2,"OCCO [1,2-ethanediol] + O"

# Same assay, conditions: 333.15 K; 100 kPa; Liquid; Sing-around technique in a fixed-path interferometer; x1 = 0.9886
row,speed of sound [m/s],Structure (SMILES)
1,1571.7 ± 1.3,"OCCO [1,2-ethanediol] + O"

# Same assay, conditions: 333.15 K; 100 kPa; Liquid; Sing-around technique in a fixed-path interferometer; x1 = 0.9943
row,speed of sound [m/s],Structure (SMILES)
1,1571.5 ± 1.3,"OCCO [1,2-ethanediol] + O"

# Same assay, conditions: 333.15 K; 100 kPa; Liquid; Sing-around technique in a fixed-path interferometer; x1 = 0.9959
row,speed of sound [m/s],Structure (SMILES)
1,1571.2 ± 1.3,"OCCO [1,2-ethanediol] + O"

# Same assay, conditions: 333.15 K; 100 kPa; Liquid; Vibrating tube method; x1 = 0.9886
row,mass density [kg/m3],Structure (SMILES)
1,1084.51 ± 2,"OCCO [1,2-ethanediol] + O"

# Same assay, conditions: 333.15 K; 100 kPa; Liquid; Vibrating tube method; x1 = 0.9943
row,mass density [kg/m3],Structure (SMILES)
1,1084.67 ± 2,"OCCO [1,2-ethanediol] + O"

# Same assay, conditions: 333.15 K; 100 kPa; Liquid; Vibrating tube method; x1 = 0.9959
row,mass density [kg/m3],Structure (SMILES)
1,1084.72 ± 2,"OCCO [1,2-ethanediol] + O"

# Same assay, conditions: 343.15 K; 100 kPa; Liquid; Sing-around technique in a fixed-path interferometer; x1 = 0.9886
row,speed of sound [m/s],Structure (SMILES)
1,1547.6 ± 1.3,"OCCO [1,2-ethanediol] + O"

# Same assay, conditions: 343.15 K; 100 kPa; Liquid; Sing-around technique in a fixed-path interferometer; x1 = 0.9943
row,speed of sound [m/s],Structure (SMILES)
1,1547.4 ± 1.3,"OCCO [1,2-ethanediol] + O"

# Same assay, conditions: 343.15 K; 100 kPa; Liquid; Sing-around technique in a fixed-path interferometer; x1 = 0.9959
row,speed of sound [m/s],Structure (SMILES)
1,1547.1 ± 1.3,"OCCO [1,2-ethanediol] + O"

# Same assay, conditions: 343.15 K; 100 kPa; Liquid; Vibrating tube method; x1 = 0.9886
row,mass density [kg/m3],Structure (SMILES)
1,1077.16 ± 2,"OCCO [1,2-ethanediol] + O"

# Same assay, conditions: 343.15 K; 100 kPa; Liquid; Vibrating tube method; x1 = 0.9943
row,mass density [kg/m3],Structure (SMILES)
1,1077.33 ± 2,"OCCO [1,2-ethanediol] + O"

# Same assay, conditions: 343.15 K; 100 kPa; Liquid; Vibrating tube method; x1 = 0.9959
row,mass density [kg/m3],Structure (SMILES)
1,1077.37 ± 2,"OCCO [1,2-ethanediol] + O"
